Experiments:
[1] = system: RAW264.7; test: Cytotoxicity against mouse RAW264.7 cells at anti-inflammatory IC50 after 19 hrs by MTT assay; assay type: cell-based; settings: raw264.7, 19 h
[2] = system: RAW264.7; test: Anti-inflammatory activity in mouse RAW264.7 cells assessed as inhibition of LPS-induced NO production preincubated for 1 hr followed by LPS-stimulation and measured after 18 hrs by Griess reagent-based assay; assay type: functional, cell-based
[3] = system: RAW264.7; test: Anti-inflammatory activity in mouse LPS-stimulated RAW264.7 cells assessed as decrease in iNOS protein levels preincubated for 1 hr followed by LPS-stimulation and measured after 16 hrs by Western blot analysis; assay type: functional, cell-based
[4] = system: RAW264.7; test: Anti-inflammatory activity in mouse LPS-stimulated RAW264.7 cells assessed as decrease in COX2 protein levels preincubated for 1 hr followed by LPS-stimulation and measured after 16 hrs by Western blot analysis; assay type: functional, cell-based
[5] = system: RAW264.7; test: Anti-inflammatory activity in mouse LPS-stimulated RAW264.7 cells assessed as decrease in IL1beta levels preincubated for 1 hr followed by LPS-stimulation and measured after 12 hrs by ELISA; assay type: functional, cell-based
[6] = system: RAW264.7; test: Anti-inflammatory activity in mouse LPS-stimulated RAW264.7 cells assessed as decrease in IL6 levels preincubated for 1 hr followed by LPS-stimulation and measured after 12 hrs by ELISA; assay type: functional, cell-based
[7] = system: RAW264.7; test: Anti-inflammatory activity in mouse LPS-stimulated RAW264.7 cells assessed as decrease in PGE2 levels at preincubated for 1 hr followed by LPS-stimulation and measured after 12 hrs by ELISA; assay type: functional, cell-based
[8] = system: RAW264.7; test: Anti-inflammatory activity in mouse LPS-stimulated RAW264.7 cells assessed as decrease in TNFalpha levels preincubated for 1 hr followed by LPS-stimulation and measured after 12 hrs by ELISA; assay type: functional, cell-based

## C[C@@H]1O[C@@H](O[C@H]2[C@H](O[C@H]3CC[C@]4(C)[C@H]5CC=C6[C@@H]7CC(C)(C)CC[C@]7(C(=O)O)CC[C@@]6(C)[C@]5(C)CC[C@H]4C3(C)C)OC[C@H](O[C@@H]3O[C@H](CO)[C@@H](O)[C@H](O)[C@H]3O)[C@@H]2O)[C@H](O)[C@H](O)[C@H]1O [HEDERACOLCHISIDE A1]
[1]
  Activity: Non-Toxic
[2]
  IC50: 0.59 µM
[3]
  inhibition: Dose-dependent effect
[4]
  inhibition: Dose-dependent effect
[5]
  inhibition: Dose-dependent effect
[6]
  inhibition: Dose-dependent effect
[7]
  inhibition: Dose-dependent effect
[8]
  inhibition: Dose-dependent effect

## CC1(C)CC[C@]2(C(=O)O)CC[C@]3(C)C(=CC[C@@H]4[C@@]5(C)CC[C@H](O[C@@H]6OC[C@H](O)[C@H](O)[C@H]6O[C@@H]6O[C@H](CO)[C@@H](O)[C@H](O)[C@H]6O)C(C)(C)[C@@H]5CC[C@]43C)[C@@H]2C1
[1]
  Activity: Non-Toxic
[2]
  IC50: 1.82 µM
[3]
  inhibition: Dose-dependent effect
[4]
  inhibition: Dose-dependent effect
[5]
  inhibition: Dose-dependent effect
[6]
  inhibition: Dose-dependent effect
[7]
  inhibition: Dose-dependent effect
[8]
  inhibition: Dose-dependent effect

Reference: ChEMBL document CHEMBL4400561, “Isolation, structural elucidation, and insights into the anti-inflammatory effects of triterpene saponins from the leaves of Stauntonia hexaphylla” (Bioorg Med Chem Lett, 2019)
